# Laboratory results published in patent US11059795B2, “Androgen receptor modulators and methods for their use” (ESSA Pharma, Inc., priority 2018, dated 2021).
# How the values were obtained:
# [1] = target: LBD of estrogen receptor-β (ERβ) fused to DBD of GAL4 (Homo sapiens, UniProt Q92731); assay: LBD-expressing reporter assay (GeneBLAzer), ERβ LBD; type: cell-based; details: inhibition of maximal activity attained with agonist; read-out: Steroid Receptor LBD IC50 (μM) ERβ
# Excerpt: To assess if the representative compounds (Compounds A13, A28, A38, A74, A93, and A109) compete with ligand (agonist) for the ligand-binding domain (LBD) of steroid hormone receptors (which would be off-target), the GeneBLAzer assay was employed (Thermo Fisher). This assay uses cells that stably express a chimera fusion protein comprising the LBD of a steroid hormone receptor fused to the DNA-binding domain (DBD) of GAL4 along with beta-lactamase reporter under transcriptional control of an upstream activator sequence (UAS). When agonist binds to the LBD of the GAL4 (DBD)-steroid hormone (LBD) chimera fusion protein, the protein binds to the UAS, resulting in expression of beta-lactamase. LBDs of androgen receptor (AR), progesterone receptor-beta (PRβ), glucocorticoid receptor (GR), estrogen receptor-α (ERα), and estrogen receptor-β (ERβ) were tested and IC50s calculated for inhibiting maximal activity attained with agonist.
# LNCaP tumors = assay: LNCaP xenografts model in castrated male NCG mice; type: in vivo; details: Table 4; extrapolated Cmin in efficacy
# Procedure: Tumor growth was measured in male NCG mice bearing LNCaP tumors. Castration was performed when tumors reached ˜100 mm^3 and dosing (60 mg/kg PO qd) started 1 week after castration. […] Individual tumor volume change from baseline measured at the end of the experiment.
# LN-CaP95 cells = assay: Cell proliferation assay, LNCaP95 (BrdU incorporation); type: cell-based; details: LNCaP-95, read-out: Cellular Proliferation/Viability IC50 (μM) LNCaP95
# Procedure: (§1) Cell proliferation/viability was measured in LNCaP and PC3 cells with Alamar blue, and proliferation was measured in LN-CaP95 cells with BrdU incorporation. In LNCaP cells, AR specific proliferation is calculated by measuring the difference between control cells treated with or without 0.1 nM R1881.
# LNCaP cells = assay: Cell proliferation/viability assay, LNCaP (Alamar blue); type: cell-based; details: Homo sapiens, AR specific proliferation with 0.1 nM R1881, read-out: Cellular Proliferation/Viability IC50 (μM) LNCaP
# Procedure: as §1
# PC3 cells = assay: Cell proliferation/viability assay, PC3 (Alamar blue); type: cell-based; details: Homo sapiens; PC-3, Alamar blue; read-out: Cellular Proliferation/Viability IC50 (μM) PC-3
# Procedure: as §1
# Chain of LBD of estrogen receptor-β (ERβ) fused to DBD of GAL4 (Q92731 264-498 limits assumed): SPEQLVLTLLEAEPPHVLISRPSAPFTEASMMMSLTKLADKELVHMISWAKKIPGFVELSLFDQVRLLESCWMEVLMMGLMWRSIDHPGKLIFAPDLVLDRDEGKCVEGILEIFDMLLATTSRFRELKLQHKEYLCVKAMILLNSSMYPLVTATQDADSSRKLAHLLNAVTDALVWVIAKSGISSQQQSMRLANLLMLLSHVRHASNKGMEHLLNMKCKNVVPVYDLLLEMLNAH
SMILES,IC50 [1],Cmin at 5 mg/kg PO (LNCaP tumors),IC50 (LN-CaP95 cells),IC50 (LNCaP cells),IC50 (PC3 cells)
"CC(C)(c1ccc(OCc2ncc(S(C)(=O)=O)s2)cc1)c1cc(Cl)c(OCCCl)c(C#N)c1 [Compound A93, 3-chloro-2-(2-chloroethoxy)-5-(2-(4-((5-(methylsulfonyl)thiazol-2-yl)methoxy)phenyl)propan-2-yl)benzonitrile]",> 10 µM,,,,
"CC(C)(c1ccc(OC[C@H](O)CNS(C)(=O)=O)cc1)c1cc(Cl)c(OC[C@H](O)CCl)c(Cl)c1 [X, reference compound]",7.37 µM,,4 µM,3 µM,> 10 µM
"CC(C)(c1ccc(OCc2ccnc(NS(C)(=O)=O)n2)cc1)c1cc(Cl)c(OCCCl)c(Cl)c1 [Compound A74, N-(4-((4-(2-(3,5-dichloro-4-(2-chloroethoxy)phenyl)propan-2-yl)phenoxy)methyl)pyrimidin-2-yl)methanesulfonamide]",> 10 µM,29.1 µM,2.65 µM,1.16 µM,> 10 µM

# Now from value to compound:
IC50 [1],Cmin at 5 mg/kg PO (LNCaP tumors),IC50 (LN-CaP95 cells),IC50 (LNCaP cells),IC50 (PC3 cells),SMILES
> 10 µM,,,,,"CC(C)(c1ccc(OCc2coc(NS(C)(=O)=O)n2)cc1)c1cc(Cl)c(OCCCl)c(Cl)c1 [Compound A38, N-(4-((4-(2-(3,5-dichloro-4-(2-chloroethoxy)phenyl)propan-2-yl)phenoxy)methyl)oxazol-2-yl)methanesulfonamide]"
> 10 µM,2.78 µM,4 µM,0.85 µM,> 10 µM,"CC(C)(c1ccc(OCc2ocnc2S(C)(=O)=O)cc1)c1cc(Cl)c(OCCCl)c(Cl)c1 [Compound A13, 5-((4-(2-(3,5-dichloro-4-(2-chloroethoxy)phenyl)propan-2-yl)phenoxy)methyl)-4-(methylsulfonyl)oxazole]"
> 10 µM,8.18 µM,3.78 µM,0.44 µM,> 10 µM,"CC(C)(c1ccc(OCc2ccnc(NS(C)(=O)=O)n2)cc1)c1cc(Cl)c(OCCCl)c(C#N)c1 [Compound A109, N-(4-((4-(2-(3-chloro-4-(2-chloroethoxy)-5-cyanophenyl)propan-2-yl)phenoxy)methyl)pyrimidin-2-yl)methanesulfonamide]"
> 10 µM,,6.43 µM,0.68 µM,> 10 µM,"CC(C)(c1ccc(OCc2ocnc2S(C)(=O)=O)cc1)c1cc(Cl)c(OCCCl)c(C#N)c1 [Compound A28, 3-chloro-2-(2-chloroethoxy)-5-(2-(4-((4-(methylsulfonyl)oxazol-5-yl)methoxy)phenyl)propan-2-yl)benzonitrile]"
